Experimental data taken from patent US8703758B2, “Bicyclic compound” (Takeda Pharmaceutical Company Limited, priority 2010, dated 2014).

Assays:
human ACC2 = target: T1, human ACC2 (Homo sapiens, UniProt O00763); test: Measurement of ACC2 inhibitory activity (malachite green, recombinant ACC2 (Nd)); type: biochemical; settings: read-out: ACC2 inhibitory rate (%)
T1 construct: His6 (from vector pFAST-BacHTa); made in house; host or cells: SF-9 insect cells, recombinant baculovirus BAC-ACC2 (Nd)
Method: The ACC2 inhibitory action of the compound of the present invention was evaluated by the following method.
(1) Cloning of Human ACC2 Gene and Preparation of Recombinant Baculovirus
Human ACC2 gene was cloned by PCR using a human skeletal muscle cDNA library (Clontech) as a template and Primer 1 and Primer 2 shown below. Primer 1 and Primer 2 were prepared by adding SalI, XbaI restriction enzyme recognition sequences based on the information of the base sequence of human ACC2 gene (Genbank Accession U89344).
(§1) PCR was performed using Pyrobest DNA polymerase (TAKARA BIO INC.). The obtained PCR product was cloned to pT7 Blue vector (Novagen) and after confirmation of the base sequence, digested with restriction enzymes SalI and XbaI. The obtained DNA fragment was inserted into pFAST-BacHTa (Invitrogen) digested with restriction enzymes SalI and XbaI to give expression plasmid ACC2/pFAST-BacHTa.
A plasmid for expression of ACC2 without a mitochondrial targeting sequence was prepared by PCR using the expression plasmid as a template, and Primer 3 (SalI restriction enzyme recognition sequence was added) and Primer 4 prepared by reference to the information of human ACC2 gene base sequence (Genbank Accession U89344).
as §1, with “Pyrobest-DNA” for “Pyrobest DNA”, “AflII.” for “XbaI.”, “ACC2/pFAST-BacHTa” for “pFAST-BacHTa (Invitrogen)”, “AflII” for “XbaI”, “ACC2mito7/pFAST-BacHTa.” for “ACC2/pFAST-BacHTa.”
Using the expression plasmid ACC2mito7/pFAST-BacHTa and BAC-TO-BAC Baculovirus Expression System (Invitrogen), virus stock BAC-ACC2 of recombinant Baculovirus (N terminal deleted (hereinafter Nd)) was prepared.
(2) Preparation of ACC2 (Nd) Protein
SF-9 cells (Invitrogen) were inoculated to a medium (2 L) for insect cells (Sf-900IISFM medium (Invitrogen) containing 10% fetal bovine serum (Trace), 50 mg/L Gentamicin (Invitrogen), 0.1% Pluronic F-68 (Invitrogen)) at 0.5×10^6 cells/mL, and cultured with shaking in Wave Bioreactor (Wave) at 27° C., 20 rpm, rocking angle 6°, oxygen concentration 30%.
On day 4 of the culture, 3 L of the medium for insect cells was added, the rocking angle was set to 8°, and the cells were further cultured. On day 5 of the culture, 100 mL of recombinant Baculovirus BAC-ACC2 (Nd) was added, 5 L of the medium for insect cells was further added, the rocking angle was set to 11°, and the cells were cultured for 3 days. The culture medium was centrifuged at 1000×g for 10 min to give virus-infected cells. The cells were washed with phosphate buffered saline (Invitrogen) and centrifuged under the same conditions. The obtained cells were cryopreserved at −80° C.
The cryopreserved cells were thawed in ice and suspended in 900 mL of 25 mM HEPES buffer (pH 7.5) containing 10% Glycerol, 0.13 M NaCl, 1 mM EDTA, 25 mM Sodium β-Glycerophosphate and 1 mM Sodium Orthovanadate, and supplemented with Complete Protease Inhibitor (Nippon Boehringer Ingelheim Co., Ltd.). The obtained suspension was homogenized three times in a polytron homogenizer (Kinematica) at 20,000 rpm for 30 sec. The obtained cell disruption solution was clarified by centrifugation at 31000×g for 60 min, and filtered through a 0.45 μm filter. The filtrate was passed through a column packed with 60 mL of Ni-NTA Super Flow Gel (QUIAGEN) at a flow rate of about 5 mL/min. The column was washed with buffer A (50 mM HEPES (pH 7.5) containing 0.3 M NaCl), further washed with buffer A containing 20 mM Imidazole, and eluted with buffer A containing 100 mM Imidazole. The eluate was concentrated with Vivaspin 20 (Vivascience) with a molecular weight cut off of 30K. The obtained concentrate was dialyzed against 50 mM HEPES (pH 7.5) containing 10 mM MgCl2, 2 mM Dithiothreitol, 10 mM Tripotassium Citrate and 0.3 M NaCl. The inner dialysate was filtered through a 0.22 μm filter to give ACC2 (Nd). […]

[1] = Respiratory quotient (RQ) measurement in rats on Western diet; type: in vivo, rat; settings: 20 mg/kg by gavage, male F344/Jcl rats, Mean ± S.D., N = 5
Method: 5-week-old male F344/Jcl rats (CLEA Japan, Inc., Tokyo) were acclimated to the rearing environment for 1 week after purchase and the diet was changed to Western diet (D12079B, Research diet). They were used for the experiment of Respiratory quotient (RQ) measurement at 8-week-old. For the RQ measurement experiment, the body weight was measured in the late afternoon (15:30-16:30) of the previous day and the morning (8:00-9:00) of the day, and the rats with high or low body weight increase were excluded. To the animals were administered by gavage 15 mL/kg of a liquid diet (F2LCW, Oriental Yeast Co., Ltd) prepared to a concentration of 4.95 g/15 mL (1.436 kcal/mL), and they were placed in an indirect calorimeter (Oxymax) chamber manufactured by Columbus Instruments, and RQ was recorded every 10 min. RQ values were confirmed about 1 hr after the start of the measurement and the animals were grouped (5 per group) such that a difference between groups would be small. For medication, a solvent (0.5% Methyl Cellulose, Wako Pure Chemical Industries, Ltd.) or a test compound (0.5% Methyl Cellulose suspension) was administered by gavage at 5 mL/kg. RQ was measured at 10 minute intervals from 0 to 3 hours after administration, and the average thereof was calculated. All values are shown in mean±standard deviation and statistical analysis was performed by the Dunnett-test.

[2] = Body weight after 4 weeks of oral administration in rats on Western diet (anti-obesity action); type: in vivo, rat; settings: male F344/Jcl rats; for body weight after administration for 4 weeks: Western diet, Mean ± S.D., N = 6
Method: 6-week-old male F344/Jcl rats (CLEA Japan, Inc., Tokyo) were individually reared immediately after purchase and Western diet (D12079B, Research diet) was given. From the next day, an acclimation dosing (0.5% Methyl Cellulose, 5 mL/kg, oral administration) was started (once between 8:00 AM and 11:00 AM) and body weight and food consumption amount were appropriately measured. The rats with body weight and consumption amount extremely out of the average values in the acclimation dosing period were excluded. At the stage of 7-week-old, the body weight, food consumption amount, and body fat by Echo-MRI were measured, and the rats were grouped (6 per group) based on these measurement results. During 4 weeks of the test period, body weight was measured between 8:00 AM and 11:00 AM, and a solvent (0.5% Methyl Cellulose) or a test compound (0.5% Methyl Cellulose suspension) was consecutively administered by gavage at 5 mL/kg.
4 Weeks later, the body weight was measured in the morning. All values show mean±standard deviation and Williams' test and t-test were used for statistical analysis.

T1 sequence (O00763 117-2458 limits assumed): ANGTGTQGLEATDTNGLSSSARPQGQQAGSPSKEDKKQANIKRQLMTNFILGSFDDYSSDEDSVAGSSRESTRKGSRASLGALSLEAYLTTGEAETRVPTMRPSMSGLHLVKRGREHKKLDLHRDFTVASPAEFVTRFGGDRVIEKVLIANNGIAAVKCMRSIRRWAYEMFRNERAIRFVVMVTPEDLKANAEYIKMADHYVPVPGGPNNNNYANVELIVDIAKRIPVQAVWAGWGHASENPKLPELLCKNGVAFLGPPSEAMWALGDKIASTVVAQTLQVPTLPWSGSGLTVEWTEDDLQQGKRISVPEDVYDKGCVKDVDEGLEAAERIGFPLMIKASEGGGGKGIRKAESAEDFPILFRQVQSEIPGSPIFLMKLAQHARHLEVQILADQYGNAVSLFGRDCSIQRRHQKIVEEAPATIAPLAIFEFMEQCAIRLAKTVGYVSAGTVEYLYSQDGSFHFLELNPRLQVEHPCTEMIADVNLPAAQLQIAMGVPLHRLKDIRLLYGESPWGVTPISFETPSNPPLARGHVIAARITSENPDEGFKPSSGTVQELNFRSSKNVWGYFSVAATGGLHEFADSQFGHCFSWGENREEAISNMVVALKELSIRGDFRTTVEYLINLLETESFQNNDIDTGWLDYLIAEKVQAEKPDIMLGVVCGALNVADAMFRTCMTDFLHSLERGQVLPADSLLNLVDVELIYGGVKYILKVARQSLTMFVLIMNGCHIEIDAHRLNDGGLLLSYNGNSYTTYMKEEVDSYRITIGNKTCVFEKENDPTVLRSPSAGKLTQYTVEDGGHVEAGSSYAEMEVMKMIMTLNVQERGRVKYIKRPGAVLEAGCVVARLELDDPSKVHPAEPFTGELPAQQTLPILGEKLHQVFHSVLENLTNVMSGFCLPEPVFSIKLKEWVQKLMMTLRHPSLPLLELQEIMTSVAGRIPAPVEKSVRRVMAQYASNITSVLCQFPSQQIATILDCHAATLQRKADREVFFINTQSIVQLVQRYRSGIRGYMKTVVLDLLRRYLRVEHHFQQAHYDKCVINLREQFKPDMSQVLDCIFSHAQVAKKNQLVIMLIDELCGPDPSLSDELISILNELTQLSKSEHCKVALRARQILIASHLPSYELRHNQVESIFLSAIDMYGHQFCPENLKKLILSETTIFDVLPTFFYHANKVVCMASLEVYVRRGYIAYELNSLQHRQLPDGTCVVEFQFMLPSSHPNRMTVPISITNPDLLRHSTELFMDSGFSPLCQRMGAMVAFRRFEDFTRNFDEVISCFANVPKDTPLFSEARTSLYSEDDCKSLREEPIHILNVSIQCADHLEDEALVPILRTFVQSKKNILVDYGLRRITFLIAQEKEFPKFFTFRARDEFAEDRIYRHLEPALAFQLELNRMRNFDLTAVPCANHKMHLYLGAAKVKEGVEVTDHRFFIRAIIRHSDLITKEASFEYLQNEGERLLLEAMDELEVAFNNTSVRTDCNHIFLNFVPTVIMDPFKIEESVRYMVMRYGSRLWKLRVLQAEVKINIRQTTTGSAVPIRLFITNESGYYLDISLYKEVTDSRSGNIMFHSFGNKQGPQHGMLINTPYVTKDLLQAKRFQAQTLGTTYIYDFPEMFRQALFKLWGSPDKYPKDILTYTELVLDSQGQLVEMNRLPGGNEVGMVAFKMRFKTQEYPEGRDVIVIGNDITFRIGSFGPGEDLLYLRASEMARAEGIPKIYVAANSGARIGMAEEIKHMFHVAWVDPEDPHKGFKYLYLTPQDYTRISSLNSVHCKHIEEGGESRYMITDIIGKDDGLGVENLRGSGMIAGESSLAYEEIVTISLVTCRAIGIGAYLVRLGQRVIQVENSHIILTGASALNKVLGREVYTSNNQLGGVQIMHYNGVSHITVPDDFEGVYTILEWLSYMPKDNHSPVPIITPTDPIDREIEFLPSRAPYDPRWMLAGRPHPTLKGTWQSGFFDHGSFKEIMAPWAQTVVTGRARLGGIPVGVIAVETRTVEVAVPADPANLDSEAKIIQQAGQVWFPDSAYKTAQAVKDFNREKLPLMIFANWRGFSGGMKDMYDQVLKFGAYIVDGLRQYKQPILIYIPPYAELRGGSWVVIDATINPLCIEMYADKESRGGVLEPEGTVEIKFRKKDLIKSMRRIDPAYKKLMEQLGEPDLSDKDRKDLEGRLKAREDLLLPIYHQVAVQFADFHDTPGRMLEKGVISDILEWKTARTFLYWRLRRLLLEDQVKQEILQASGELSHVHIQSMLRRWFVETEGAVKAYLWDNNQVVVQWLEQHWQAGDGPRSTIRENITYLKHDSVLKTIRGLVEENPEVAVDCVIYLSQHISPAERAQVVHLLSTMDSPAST

Structure (SMILES)	inhibition at 10 µM (human ACC2) [%]	melting point [°C]	also measured
CC(=O)N[C@@H](C)COC1CCN(c2nc3ccc(OCC4CCC4)cc3o2)CC1 [Example 34, N-[(1S)-2-({1-[6-(cyclobutylmethoxy)-1,3-benzoxazol-2-yl]piperidin-4-yl}oxy)-1-methylethyl]acetamide]	102	–	–
CC(=O)NC(C)CO[C@H]1CC[C@H](c2nc3ccc(OCC4CC4)cc3o2)CC1 (stereo partly drawn) [Example 39, N-[2-({trans-4-[6-(cyclopropylmethoxy)-1,3-benzoxazol-2-yl]cyclohexyl}oxy)-1-methylethyl]acetamide]	–	131 to 132	–
Cc1conc1NC(C)COC1CCN(c2nc3ccc(OCC4CC4)cc3o2)CC1 (stereo not drawn) [Example 7, N-[2-({1-[6-(cyclopropylmethoxy)-1,3-benzoxazol-2-yl]piperidin-4-yl}oxy)-1-methylethyl]-4-methylisoxazol-3-amine]	100	–	–
CC(=O)N[C@@H](C)COC1CCN(c2nc3cc(OCC4CC4)ccc3o2)CC1 [Example 2, N-[(1S)-2-({1-[5-(cyclopropylmethoxy)-1,3-benzoxazol-2-yl]piperidin-4-yl}oxy)-1-methylethyl]acetamide]	100	99 to 100	average RQ of 0 to 3 hours after administration [1]: 0.787 ± 0.019; comparison with control group (body weight after 4 weeks) ([2]; 10 mg/kg/day by gavage): −5.4%; body weight after administration for 4 weeks ([2]; 10 mg/kg/day by gavage): 267.2 ± 4.1; comparison with control group (body weight after 4 weeks) ([2]; 20 mg/kg/day by gavage): −6.0%; body weight after administration for 4 weeks ([2]; 20 mg/kg/day by gavage): 265.4 ± 10.8
CC(=O)N[C@@H](C)CO[C@H]1CC[C@H](n2cc3ccc(OCCC4CC4)cc3n2)CC1 [Example 40, N-[(1S)-2-({trans-4-[6-(2-cyclopropylethoxy)-2H-indazol-2-yl]cyclohexyl}oxy)-1-methylethyl]acetamide]	–	98 to 99	–
CC(=O)N[C@@H](C)COC1CCN(c2nc3ccc(OCC(C)C)cc3o2)CC1 [Example 33, N-[(1S)-1-methyl-2-({1-[6-(2-methylpropoxy)-1,3-benzoxazol-2-yl]piperidin-4-yl}oxy)ethyl]acetamide]	99	103 to 105	–
CC(=O)NC(C)CCC1CCN(c2nc3ccc(OCC4CC4)cc3o2)CC1 (racemic) [Example 5, N-(3-{1-[6-(cyclopropylmethoxy)-1,3-benzoxazol-2-yl]piperidin-4-yl}-1-methylpropyl)acetamide]	104	131 to 132	–
CC(COC1CCN(c2nc3ccc(OCC4CC4)cc3o2)CC1)Nc1ccon1 (stereo not drawn) [Example 4, N-[2-({1-[6-(cyclopropylmethoxy)-1,3-benzoxazol-2-yl]piperidin-4-yl}oxy)-1-methylethyl]isoxazol-3-amine]	100	–	–
CC(=O)NC(C)CC[C@H]1CC[C@H](n2cc3ccc(OCC4CC4)cc3n2)CC1 (stereo partly drawn) [Example 41, N-(3-{trans-4-[6-(cyclopropylmethoxy)-2H-indazol-2-yl]cyclohexyl}-1-methylpropyl)acetamide]	–	139 to 140	–
CC(=O)NC(C)CO[C@H]1CC[C@H](c2cc3ccc(OCC4CC4)cc3o2)CC1 (stereo partly drawn) [Example 38, N-[2-({trans-4-[6-(cyclopropylmethoxy)-1-benzofuran-2-yl]cyclohexyl}oxy)-1-methylethyl]acetamide]	–	104 to 105	–
CC(=O)N[C@@H](C)COC1CCN(c2nc3ccc(OCC4CC4)cc3o2)CC1 [Example 1, N-[(1S)-2-({1-[6-(cyclopropylmethoxy)-1,3-benzoxazol-2-yl]piperidin-4-yl}oxy)-1-methylethyl]acetamide]	97	122 to 123	average RQ of 0 to 3 hours after administration [1]: 0.795 ± 0.013; comparison with control group (body weight after 4 weeks) ([2]; 20 mg/kg/day by gavage): −6.1%; body weight after administration for 4 weeks ([2]; 20 mg/kg/day by gavage): 265.1 ± 7.2
CC(=O)N[C@@H](C)COC1CCN(c2nc3ccc(OCCC4CC4)cc3o2)CC1 [Example 35, N-[(1S)-2-({1-[6-(2-cyclopropylethoxy)-1,3-benzoxazol-2-yl]piperidin-4-yl}oxy)-1-methylethyl]acetamide]	102	99.3 to 99.6	–
CC(=O)N[C@@H](C)COC1CCN(c2nc3cc(OCC4CC4)ccc3s2)CC1 [Example 3, N-[(1S)-2-({1-[5-(cyclopropylmethoxy)-1,3-benzothiazol-2-yl]piperidin-4-yl}oxy)-1-methylethyl]acetamide]	104	–	–
CC(=O)N[C@@H](C)CCC1CCN(c2nc3ccc(OCC4CC4)cc3o2)CC1 [Example 5a, N-[(1S)-(3-{1-[6-(cyclopropylmethoxy)-1,3-benzoxazol-2-yl]piperidin-4-yl}-1-methylpropyl)]acetamide]	106	138.2 to 138.4	–
CC(=O)N[C@@H](C)COC1CCN(c2nc3cc(OCC4CCC4)ccc3o2)CC1 [Example 6, N-[(1S)-2-({1-[5-(cyclobutylmethoxy)-1,3-benzoxazol-2-yl]piperidin-4-yl}oxy)-1-methylethyl]acetamide]	98	109 to 110	–
